Experimental data reported in patent US8969395B2, “Triterpenoid derivatives useful as antiproliferative agents” (Universidade de Coimbra, priority 2009, dated 2015).

Legend:
Type in all cases: cell-based
Conditions in all cases: 72 h, mean ±SD
[1] = test system: HeLa (human cervical adenocarcinoma); assay: Cytotoxic activity, MTT assay, HeLa
Experimental: (§1) The cytotoxic of compounds of formulas (I) and (II) 14-50 was assessed towards human cancer (HepG2, HeLa and Jurkat) cell lines (Table 3 below). Compounds presented on Table 4 were also tested against a non-tumoral liver cell line (Chang liver). The cell viability of HeLa, HepG2 and Chang liver cells was determined by the MTT assay. Briefly, exponentially growing cells were plated in 96-well plates at a density of 1×10^3, 8×10^3 and 5×10^3 cells/well respectively and incubated for 24 h before treatment. The grown medium was replaced with one contained the tested compounds dissolved in DMSO (final DMSO concentration <0.1%) at different concentrations, in triplicate wells, and cells were incubated for 72 h. After incubation with the compounds, the medium was removed and MTT solution (0.5 mg/ml, 100 μl) was added to each well and the plates were incubated again for 1 h. DMSO (100 μl) was then added to dissolve the formazan crystals and the plates were immediately read at 550 nm on an ELISA plate reader (Tecan Sunrise MR20-301, TECAN, Austria). For the Jurkat cells, the cell viability was determined by the XTT assay. Briefly, exponentially growing cells were plated in 96-well plates at a density of 5.5×10^3 cells/well, treated with different concentrations of compounds in triplicate and incubated for 72 h. After incubation with the compounds the XTT labeling mixture (100 μl) were added to each of the wells and after a 4 h incubation period the plates were read at 450 nm on an ELISA plate reader. […] Known for its cytotoxic activity, betulinic acid 2 was used as a positive control in this experimentation.

Jurkat (human leukemia) = assay: Cytotoxic activity, XTT assay, Jurkat
Experimental: as §1, with “experimentation. […] All the IC50 results represent an average of a minimum of three experiments and were expressed as means±standard deviation (SD).” for “experimentation.”

[2] = test system: HepG2 (human hepatocellular carcinoma); assay: Cytotoxic activity, MTT assay, HepG2
Experimental: as §1, with “experimentation. […] All the IC50 results represent an average of a minimum of three experiments and were expressed as means±standard deviation (SD).” for “experimentation.”

Row | Compound | IC50 [1] [µM] | IC50 (Jurkat (human leukemia)) [µM] | IC50 [2] [µM]
1 | C=C(C)[C@@H]1CC[C@]2(COC(=O)n3cncn3)CC[C@]3(C)[C@H](CC[C@@H]4[C@@]5(C)CC[C@H](O)C(C)(C)[C@@H]5CC[C@]43C)[C@@H]12 [Compound 16, 3β-hydroxy-lup-20(29)-en-28-yl-1H-triazole-1-carboxylate] | 15.2 ± 2.1 |  | 
2 | C=C(C)[C@@H]1CC[C@]2(COC(=O)n3ccnc3C)CC[C@]3(C)[C@H](CC[C@@H]4[C@@]5(C)CC[C@H](OC(=O)n6ccnc6C)C(C)(C)[C@@H]5CC[C@]43C)[C@@H]12 [Compound 18, Lup-20(29)-en-3β,28-di-yl-(2′-methyl-1H-imidazole-1-carboxylate)] | > 30 | > 30 | > 30
3 | C=C(C)C1CCC2(COC(=O)n3cncn3)CCC3(C)C(CCC4C5(C)CCC(OC(=O)n6cncn6)C(C)(C)C5CCC43C)C12 (stereo not drawn) [Compound 19, Lup-20(29)-en-3β,28-di-yl-(1H-triazole-1-carboxylate)] | > 30 |  | 
4 | C=C(C)[C@@H]1CC[C@]2(CO)CC[C@]3(C)[C@H](CC[C@@H]4[C@@]5(C)CC[C@H](OC(=O)n6cncn6)C(C)(C)[C@@H]5CC[C@]43C)[C@@H]12 [Compound 21, 28-hydroxy-lup-20(29)-en-3β-yl-1H-triazole-1-carboxylate] | 11.3 ± 1.9 |  | 
5 | C=C(C)[C@@H]1CC[C@]2(COC(=O)n3ccnc3)CC[C@]3(C)[C@H](CC[C@@H]4[C@@]5(C)CC[C@H](OC(C)=O)C(C)(C)[C@@H]5CC[C@]43C)[C@@H]12 [Compound 22, 3β-acetoxy-lup-20(29)-en-28-yl-1H-imidazole-1-carboxylate] | > 30 | > 30 | > 30
6 | C=C(C)[C@@H]1CC[C@]2(COC(=O)n3ccnc3C)CC[C@]3(C)[C@H](CC[C@@H]4[C@@]5(C)CC[C@H](OC(C)=O)C(C)(C)[C@@H]5CC[C@]43C)[C@@H]12 [Compound 23, 3β-acetoxy-lup-20(29)-en-28-yl-2′-methyl-1H-imidazole-1-carboxylate] | > 30 | > 30 | > 30
7 | C=C(C)[C@@H]1CC[C@]2(COC(=O)n3cncn3)CC[C@]3(C)[C@H](CC[C@@H]4[C@@]5(C)CC[C@H](OC(C)=O)C(C)(C)[C@@H]5CC[C@]43C)[C@@H]12 [Compound 24, 3β-acetoxy-lup-20(29)-en-28-yl-1H-triazole-1-carboxylate] | 23.2 ± 2.1 |  | 
8 | C=C(C)[C@@H]1CC[C@]2(COC(C)=O)CC[C@]3(C)[C@H](CC[C@@H]4[C@@]5(C)CC[C@H](OC(=O)n6ccnc6)C(C)(C)[C@@H]5CC[C@]43C)[C@@H]12 [Compound 25, 28-acetoxy-lup-20(29)-en-3β-yl-1H-imidazole-1-carboxylate] | > 30 | > 30 | > 30
9 | C=C(C)C1CCC2(COC(C)=O)CCC3(C)C(CCC4C5(C)CCC(OC(=O)n6cncn6)C(C)(C)C5CCC43C)C12 (stereo not drawn) [Compound 27, 28-acetoxy-lup-20(29)-en-3β-yl-1H-triazole-1-carboxylate] | > 30 |  | 
10 | C=C(C)C1CCC2(C(=O)n3cncn3)CCC3(C)C(CCC4C5(C)CCC(OC(=O)n6cncn6)C(C)(C)C5CCC43C)C12 (stereo not drawn) [Compound 32, 28-(1H-triazole-1-yl)-28-oxo-lup-20(29)-en-3β-yl-1H-triazole-1-carboxylate] | 14.5 ± 3.2 |  | 
11 | C=C(COC)[C@@H]1CC[C@]2(COC(=O)n3cncn3)CC[C@]3(C)[C@H](CC[C@@H]4[C@@]5(C)CC[C@H](O)C(C)(C)[C@@H]5CC[C@]43C)[C@@H]12 [Compound 37, 3β-hydroxy-30-methoxylup-20(29)-en-28-yl-1H-triazole-1-carboxylate] | 13.8 ± 2.3 |  | 
12 | C=C(COC)C1CCC2(COC(=O)n3cncn3)CCC3(C)C(CCC4C5(C)CCC(OC(=O)n6cncn6)C(C)(C)C5CCC43C)C12 (stereo not drawn) [Compound 40, 30-methoxylup-20(29)-en-3β,28-di-yl-(1H-triazole-1-carboxylate)] | > 30 |  | 
